The results in this text go back to patent US9371290B2, “Pyridazinone compounds” (BIOTIE THERAPIES CORPORATION, priority 2011, dated 2016).

Data set [1] concerns the target T1, Recombinant human VAP-1 SSAO (Homo sapiens, UniProt Q16853).
T1 construct: made in house; host or cells: Chinese Hamster Ovary (CHO) cells; clarified NP40 cell lysate used directly
T1 sequence (Q16853 1-763): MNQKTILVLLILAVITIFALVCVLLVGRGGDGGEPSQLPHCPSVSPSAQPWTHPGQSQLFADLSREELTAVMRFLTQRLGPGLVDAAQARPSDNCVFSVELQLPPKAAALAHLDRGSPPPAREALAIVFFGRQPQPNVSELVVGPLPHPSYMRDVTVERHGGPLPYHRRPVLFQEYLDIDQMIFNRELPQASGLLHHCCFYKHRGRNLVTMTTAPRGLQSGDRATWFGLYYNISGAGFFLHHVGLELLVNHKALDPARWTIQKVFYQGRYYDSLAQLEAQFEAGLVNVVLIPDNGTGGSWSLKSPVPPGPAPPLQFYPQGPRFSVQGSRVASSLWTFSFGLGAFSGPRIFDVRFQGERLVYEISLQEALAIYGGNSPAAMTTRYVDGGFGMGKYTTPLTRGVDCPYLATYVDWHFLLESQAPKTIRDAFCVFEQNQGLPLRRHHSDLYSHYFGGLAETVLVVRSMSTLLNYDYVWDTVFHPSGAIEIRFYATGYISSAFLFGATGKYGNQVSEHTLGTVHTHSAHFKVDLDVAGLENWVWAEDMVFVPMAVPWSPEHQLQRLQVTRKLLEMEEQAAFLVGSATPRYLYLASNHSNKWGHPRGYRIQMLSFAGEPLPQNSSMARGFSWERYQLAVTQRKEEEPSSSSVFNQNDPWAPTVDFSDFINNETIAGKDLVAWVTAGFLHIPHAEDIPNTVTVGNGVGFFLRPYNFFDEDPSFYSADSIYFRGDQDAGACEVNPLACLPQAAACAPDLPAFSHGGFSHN
The data set can be described thus: In vitro inhibition of VAP-1 SSAO activity (coupled colorimetric method, benzylamine substrate). The conditions noted are these: CHO cell lysate, 1 mM benzylamine, read-out: VAP-1 SSAO Inhibitory activity IC50. The class given is biochemical. On the procedure:
VAP-1 SSAO activity was measured using the coupled colorimetric method essentially as described for monoamine oxidase and related enzymes (Holt, A., et al., Anal. Biochem. 244:384-392 (1997)). Recombinant human VAP-1 SSAO expressed in Chinese Hamster Ovary (CHO) cells was used as a source of VAP-1 SSAO for activity measurements. Native CHO cells have negligible SSAO activity. These cells and their culture have previously been described (Smith, D. J., et al., J. Exp. Med. 188:17-27 (1998)). A cell lysate was prepared by suspending approximately 3.6×10^8 cells in 25 ml lysis buffer (150 mM NaCl, 10 mM Tris-Base pH 7.2, 1.5 mM MgCl2, 1% NP40) and incubating at 4° C. overnight on a rotating table. The lysate was clarified by centrifugation at 18 000 g for 5 min at room temperature and the supernatant used directly in the assay. The VAP-1 SSAO assay was performed in 96 well microtitre plates as follows. To each well was added a predetermined amount of inhibitor if required. The amount of inhibitor varied in each assay but was generally at a final concentration of between 1 nM and 50 μM. Controls lacked inhibitor. The inhibitor was in a total volume of 20 μl in water. The following reagents were then added. 0.2 M potassium phosphate buffer pH 7.6 to a total reaction volume of 200 μl, 50 μl of freshly made chromogenic solution containing 1 mM vanillic acid, 500 μM 4-aminoantipyrine and 8 U/ml horseradish peroxidase and an amount of CHO cell lysate containing VAP-1 SSAO that caused a change of 0.6 A490 per h. This was within the linear response range of the assay. The plates were incubated for 30 min at 37° C. and the background absorbance measured at 490 nm using a Wallac Victor II multilabel counter. To initiate the enzyme reaction 20 μl 10 mM benzylamine (final concentration=1 mM) was added and the plate incubated for 1 h at 37° C. The increase in absorbance, reflecting VAP-1 SSAO activity, was measured at 490 nm. Inhibition was presented as percent inhibition compared to control after correcting for background absorbance and IC50 values calculated using GraphPad Prism.

A further data set relates to Total MAO. Kind of data set: Total rat MAO activity (rat liver mitochondrial preparation, tyramine substrate). The class given is biochemical. The following applies: at 50 μM. How it is done:
Rat MAO was prepared from rat liver by rinsing the 1 g liver sample several times in 14 ml KCl-EDTA-solution to remove all blood. Then 1 g liver sample was homogenized in 4 ml ice-cold potassium phosphate buffer (0.1 M, pH 7.4) with an Ultra-Turrax homogenizer (setting 11 000 rpm, 4×10 s). After centrifugation at 500 g for 10 min at 4° C. the supernatant was carefully withdrawn and was centrifuged at 12 300 g for 15 min at 4° C. The supernatant was discharged and sedimented mitochondria were resuspended in 4 ml fresh phosphate buffer and centrifuged as previously. The mitochondria were suspended in 4 ml phosphate buffer and homogenized with an Ultra-Turrax homogenizer (setting 11 000 rpm, 2×10 s). Mitochondrial preparate was aliquoted and stored at −70° C. Total MAO activity was measured in a similar way as for VAP-1 SSAO except that SSAO enzyme was replaced by MAO enzyme. To each well was added a predetermined amount of inhibitor if required. The amount of inhibitor varied in each assay but was generally at a final concentration of between 10 nM and 800 μM. Controls lacked inhibitor. The inhibitor was in a total volume of 20 μl in water. The following reagents were then added. 0.2 M potassium phosphate buffer pH 7.6 for a total reaction volume of 200 μl, 50 μl of freshly made chromogenic solution (as above) and 50 μl of MAO preparation (or needed amount of MAO). The plates were incubated for 30 min at 37° C. and the background absorbance measured at 490 nm using a Wallac Victor II multilabel counter. To initiate the enzyme reaction 20 μl of 5 mM tyramine (final concentration 0.5 mM) was added and the plate incubated for 1 h at 37° C. The increase in absorbance, reflecting MAO activity, was measured at 490 nm. Inhibition was presented as percent inhibition compared to control after correcting for background absorbance and IC50 values calculated using GraphPad Prism. Clorgyline and pargyline (inhibitors of MAO-A and -B respectively) at 0.5 μM were added to some wells as positive controls for MAO inhibition.

Structures are written as SMILES.

The term IC50 denotes the concentration needed to halve the response being measured. The term melting point denotes the temperature of the solid-liquid transition. Consider `O=c1cc(Nc2ccc(N3CCOCC3)cc2)c(-c2nc[nH]n2)nn1-c1ccc(Cl)cc1` [Compound 74], for which the melting point is 248 to 250 °C. For the same molecule, the concentration for half-maximal inhibition (IC50) in data set [1] worked out at 0.1 µM. The “Total MAO Inhibitory activity (%)” value with Total MAO worked out at 0%.

Molecule `C#CCNc1cc(=O)n(-c2ccc(Cl)cc2)nc1-c1nc[nH]n1` [Compound 75] registered a melting point of 252 to 254 °C. The IC50 in data set [1] stood at 0.22 µM. Further, in the data set on Total MAO, the “Total MAO Inhibitory activity (%)” value is given as 0%.

Consider `O=c1cc(Nc2ccc(N3CCN(Cc4ccccc4)CC3)cc2)c(-c2nc[nH]n2)nn1-c1ccc(Cl)cc1` [Compound 77], for which the melting point lay in the range of 248 to 251 °C. The concentration for half-maximal inhibition (IC50) in data set [1] came to 0.35 µM. The “Total MAO Inhibitory activity (%)” value with Total MAO is 24%.

Consider `C#CCCNc1cc(=O)n(-c2ccc(Cl)cc2)nc1-c1nc[nH]n1` [Compound 83], for which the melting point lay within 176 to 177 °C. Further, in data set [1], the IC50 came out at 0.073 µM. Moreover, in the data set on Total MAO, the “Total MAO Inhibitory activity (%)” value stood at 0%.
